Laboratory results taken from patent US20250101034A1, “COMPOSITIONS USEFUL FOR MODULATING SPLICING” (SKYHAWK THERAPEUTICS, INC., priority 2021, published 2025).

Columns and labels:
[1] = test system: ATXN3 transcripts containing exon 4 (E4E5); experiment: ATXN3 quantitative splicing assay (qPCR, SK-N-MC cells); format: cell-based; details: Homo sapiens, 24 h treatment, qPCR E4E5 primers/probe, read-out: ATXN3 Potency - Splicing E4E5 IC50
Method: Human neuroblastoma SK-N-MC cells were plated in 384-well plates at 20,000 cells/well. Twenty-four hours after plating, cells were treated with compounds for 24 h at appropriate concentrations ranging from 30 μM to 0.6 nM (0.3% DMSO). Treated cells were lysed in 15 μL of lysis buffer, and cDNA was synthesized using the Fast Advanced Cells-to-Ct kit. Two μL of each cDNA was used in qPCR reactions to confirm the exon 4 skipped transcripts of ATXN3. A second set of primers/probe E4E5 was used to detect the transcripts containing exon 4. The third set of primers/probe E8E9 was used to detect total gene level of ATXN3. The qPCR reactions were prepared in 384-well plates in 10 μL volume, using TaqMan™ Fast Advanced Master Mix with primers and probes shown in the table below. Reactions were run in a Quant Studio 6 qPCR instrument with default settings.
The primers and probes are listed below in Table 4.

total ATXN3 protein = experiment: ATXN3 total protein assay (MSD, SK-N-MC cells); format: cell-based, Human; details: 48 hours incubation, read-out: ATXN3 Potency - Protein IC50
Method: Human neuroblastoma SK-N-MC cells were seeded at 10,000 cells/well in 384 well plates one day prior to compound treatment. The concentrations of compounds were tested at appropriate doses ranging from 30 μM to 0.6 nM. After incubation for 48 hours, the cells were lysed with 25 μL of lysis buffer containing protease inhibitors, and total ATXN3 protein levels were assessed by Mesoscale Discovery (MSD) assay developed with one pair of anti-ATXN3 antibodies. The capture and detect antibodies were raised in mouse and rabbit respectively. Anti-rabbit MSD-ST antibody was used for secondary antibody.
ATXN3 recombinant protein was used for standards. The readouts were captured with 35 μL of MSD read buffer and multi-array 384-well high binding plates.

Row | IC50 [1] [µM] | IC50 (total ATXN3 protein) [µM] | Compound
1 | 10 to 40 | 10 to 40 | Cc1c(C[C@@H](N)CS(C)(=O)=O)sc2c(NCc3ccco3)cnnc12 [Compound 32, 6-[(2R)-2-amino-3-methanesulfonylpropyl]-N-[(furan-2-yl)methyl]-7-methylthieno[3,2-c]pyridazin-4-amine]
2 | 10 to 40 | 10 to 40 | Cc1c(C[C@@H](N)C[S+](C)[O-])sc2c(NCc3ccco3)cnnc12 (stereo partly drawn) [Compound 33, 6-[(2R)-2-amino-3-methanesulfinylpropyl]-N-[(furan-2-yl)methyl]-7-methylthieno[3,2-c]pyridazin-4-amine]
3 | 10 to 40 | 10 to 40 | C=C(C)Cc1sc2c(NCc3ccco3)cnnc2c1C [Compound 34, N-[(furan-2-yl)methyl]-7-methyl-6-(2-methylprop-2-en-1-yl)thieno[3,2-c]pyridazin-4-amine]
4 | 10 to 40 | 10 to 40 | C=C(C)c1sc2c(NCc3cccs3)cnnc2c1C [Compound 37, 7-methyl-6-(prop-1-en-2-yl)-N-(thiophen-2-ylmethyl)thieno[3,2-c]pyridazin-4-amine]
5 | 5 to 10 | 5 to 10 | Cc1c(C[C@@H](N)CC#N)sc2c(NCc3ccco3)cnnc12 [Compound 38, (3S)-3-amino-4-(4-{[(furan-2-yl)methyl]amino}-7-methylthieno[3,2-c]pyridazin-6-yl)butanenitrile]
6 | 10 to 40 | 10 to 40 | CCc1csc2c(NCc3cccs3)cnnc12 [Compound 40, 7-ethyl-N-[(thiophen-2-yl)methyl]thieno[3,2-c]pyridazin-4-amine]
7 | 0.501 to 5 | 0.501 to 5 | Cc1c(C[C@@H](N)CCF)sc2c(NCc3cccs3)cnnc12 [Compound 48, 6-[(2S)-2-amino-4-fluorobutyl]-7-methyl-N-(thiophen-2-ylmethyl)thieno[3,2-c]pyridazin-4-amine]
8 | 0.501 to 5 | 0.501 to 5 | Cc1c(C[C@@H](N)CC(F)(F)F)sc2c(NCc3cccs3)cnnc12 [Compound 50, 6-[(2S)-2-amino-4,4,4-trifluorobutyl]-7-methyl-N-[(thiophen-2-yl)methyl]thieno[3,2-c]pyridazin-4-amine]
9 | 0.501 to 5 | 0.501 to 5 | Cc1c(C[C@@H](N)CC2CC2)sc2c(NCc3ccco3)cnnc12 [Compound 52, 6-[(2S)-2-amino-3-cyclopropylpropyl]-N-[(furan-2-yl)methyl]-7-methylthieno[3,2-c]pyridazin-4-amine]
10 | 0.501 to 5 | 0.501 to 5 | N[C@@H](CO)Cc1cc2nncc(NCc3cccs3)c2s1 [Compound 53, (2R)-2-amino-3-(4-{[(thiophen-2-yl)methyl]amino}thieno[3,2-c]pyridazin-6-yl)propan-1-ol]
11 | 10 to 40 | 10 to 40 | Cc1c(C(C)CO)sc2c(NCc3cccs3)cnnc12 (centres unmarked) [Compound 54, 2-{7-methyl-4-[(thiophen-2-ylmethyl)amino]thieno[3,2-c]pyridazin-6-yl}propan-1-ol]
12 | 0.501 to 5 | 0.501 to 5 | Cc1c(C(F)[C@H](C)N)sc2c(NCc3cccs3)cnnc12 (stereo partly drawn) [Compound 55, 6-[(2S)-2-amino-1-fluoropropyl]-7-methyl-N-[(thiophen-2-yl)methyl]thieno[3,2-c]pyridazin-4-amine]
13 | 10 to 40 | 10 to 40 | Cc1nnc2c(C)csc2c1NCc1cccs1 [Compound 57, 3,7-dimethyl-N-[(thiophen-2-yl)methyl]thieno[3,2-c]pyridazin-4-amine]
14 | 0.501 to 5 | 0.501 to 5 | CSC[C@H](N)Cc1sc2c(NCc3cccs3)cnnc2c1C [Compound 58, 6-[(2R)-2-amino-3-(methylsulfanyl)propyl]-7-methyl-N-(thiophen-2-ylmethyl)thieno[3,2-c]pyridazin-4-amine]
15 | 5 to 10 | 10 to 40 | Cc1c(C[C@@H](N)C[S+](C)[O-])sc2c(NCc3cccs3)cnnc12 (stereo partly drawn) [Compound 59, 6-[(2R)-2-amino-3-methanesulfinylpropyl]-7-methyl-N-[(thiophen-2-yl)methyl]thieno[3,2-c]pyridazin-4-amine]
16 | 5 to 10 | 5 to 10 | Cc1c(C[C@@H](N)CS(C)(=O)=O)sc2c(NCc3cccs3)cnnc12 [Compound 60, 6-[(2R)-2-amino-3-methanesulfonylpropyl]-7-methyl-N-(thiophen-2-ylmethyl)thieno[3,2-c]pyridazin-4-amine]
17 | 0.501 to 5 | 0.501 to 5 | Cc1c(C[C@@H](N)CCO)sc2c(NCc3cccs3)cnnc12 [Compound 61, (3S)-3-amino-4-(7-methyl-4-{[(thiophen-2-yl)methyl]amino}thieno[3,2-c]pyridazin-6-yl)butan-1-ol]

Further lines, the compound ahead of its results:

Row | Compound | IC50 [1] [µM] | IC50 (total ATXN3 protein) [µM]
18 | Cc1c([C@@H](C)[C@H](C)N)sc2c(NCc3cccs3)cnnc12 [Compound 25] | 10 to 40 | 10 to 40
19 | Cc1c([C@H](C)[C@H](C)N)sc2c(NCc3cccs3)cnnc12 [Compound 26] | 10 to 40 | 10 to 40
20 | Cc1c(C[C@@H](N)CC#N)sc2c(NCc3cccs3)cnnc12 [Compound 27, (3S)-3-amino-4-(7-methyl-4-{[(thiophen-2-yl)methyl]amino}thieno[3,2-c]pyridazin-6-yl)butanenitrile] | 0.501 to 5 | 5 to 10
21 | Cc1c(C[C@@H](N)CC(F)F)sc2c(NCc3cccs3)cnnc12 [Compound 28, 6-[(2S)-2-amino-4,4-difluorobutyl]-7-methyl-N-[(thiophen-2-yl)methyl]thieno[3,2-c]pyridazin-4-amine] | 10 to 40 | 10 to 40
22 | Cc1c(C[C@@H](N)CCO)sc2c(NCc3ccco3)cnnc12 [Compound 29, (3S)-3-amino-4-(4-{[(furan-2-yl)methyl]amino}-7-methylthieno[3,2-c]pyridazin-6-yl)butan-1-ol] | 0.501 to 5 | 0.501 to 5
23 | CSC[C@H](N)Cc1sc2c(NCc3ccco3)cnnc2c1C [Compound 30, 6-[(2R)-2-amino-3-(methylsulfanyl)propyl]-N-[(furan-2-yl)methyl]-7-methylthieno[3,2-c]pyridazin-4-amine] | 0.501 to 5 | 0.501 to 5
24 | Cc1c(C[C@@H](N)CCF)sc2c(NCc3ccco3)cnnc12 [Compound 31, 6-[(2S)-2-amino-4-fluorobutyl]-N-[(furan-2-yl)methyl]-7-methylthieno[3,2-c]pyridazin-4-amine] | 0.501 to 5 | 0.501 to 5
25 | C[C@H](N)Cc1sc2c(NCc3cccs3)cnnc2c1Br [Compound 35, 6-[(2S)-2-aminopropyl]-7-bromo-N-[(thiophen-2-yl)methyl]thieno[3,2-c]pyridazin-4-amine] | 0.101 to 0.5 | 0.101 to 0.5
26 | C[C@H](N)Cc1sc2c(NCc3cccs3)cnnc2c1Cl [Compound 36, 6-[(2S)-2-aminopropyl]-7-chloro-N-[(thiophen-2-yl)methyl]thieno[3,2-c]pyridazin-4-amine] | 0.101 to 0.5 | 0.101 to 0.5
27 | C[C@H](N)Cc1cc2nncc(NCc3cccs3)c2s1 [Compound 39, 6-[(2S)-2-aminopropyl]-N-[(thiophen-2-yl)methyl]thieno[3,2-c]pyridazin-4-amine] | 0.501 to 5 | 0.501 to 5
28 | Cc1c(C[C@H](C)N)sc2c(NCn3cccc3)cnnc12 [Compound 43, 6-[(2S)-2-aminopropyl]-7-methyl-N-[(1H-pyrrol-1-yl)methyl]thieno[3,2-c]pyridazin-4-amine] | 5 to 10 | 5 to 10
29 | Cc1c(C[C@H](C)N)sc2c(NCc3cncs3)cnnc12 [Compound 44, 6-[(2S)-2-aminopropyl]-7-methyl-N-[(1,3-thiazol-5-yl)methyl]thieno[3,2-c]pyridazin-4-amine] | 10 to 40 | 10 to 40
30 | Cc1c(C[C@H](C)N)sc2c(NCc3cc(F)cs3)cnnc12 [Compound 45, 6-[(2S)-2-aminopropyl]-N-[(4-fluorothiophen-2-yl)methyl]-7-methylthieno[3,2-c]pyridazin-4-amine] | 0.501 to 5 | 0.501 to 5
31 | Cc1c(C[C@H](C)N)sc2c(NCc3cnco3)cnnc12 [Compound 46, 6-[(2S)-2-aminopropyl]-7-methyl-N-[(1,3-oxazol-5-yl)methyl]thieno[3,2-c]pyridazin-4-amine] | 10 to 40 | 10 to 40
32 | Cc1c(C[C@@H](C)N)sc2c(NCc3cccs3)cnnc12 [Compound 49, 6-[(2R)-2-aminopropyl]-7-methyl-N-[(thiophen-2-yl)methyl]thieno[3,2-c]pyridazin-4-amine] | 10 to 40 | 10 to 40
33 | Cc1c(C[C@H](C)N)sc2c(NC(=O)c3cccs3)cnnc12 [Compound 51, N-{6-[(2S)-2-aminopropyl]-7-methylthieno[3,2-c]pyridazin-4-yl}thiophene-2-carboxamide] | 10 to 40 | 10 to 40
34 | Cc1c(C[C@H](C)N)sc2c(NCc3csc(F)c3)cnnc12 [Compound 56, 6-[(2S)-2-aminopropyl]-N-[(5-fluorothiophen-3-yl)methyl]-7-methylthieno[3,2-c]pyridazin-4-amine] | 10 to 40 | 10 to 40
